SMILES strings stand for the structures.

Chain of Transient receptor potential cation channel subfamily M member 8 (Homo sapiens) (Q7Z2W7 whole entry, looked up): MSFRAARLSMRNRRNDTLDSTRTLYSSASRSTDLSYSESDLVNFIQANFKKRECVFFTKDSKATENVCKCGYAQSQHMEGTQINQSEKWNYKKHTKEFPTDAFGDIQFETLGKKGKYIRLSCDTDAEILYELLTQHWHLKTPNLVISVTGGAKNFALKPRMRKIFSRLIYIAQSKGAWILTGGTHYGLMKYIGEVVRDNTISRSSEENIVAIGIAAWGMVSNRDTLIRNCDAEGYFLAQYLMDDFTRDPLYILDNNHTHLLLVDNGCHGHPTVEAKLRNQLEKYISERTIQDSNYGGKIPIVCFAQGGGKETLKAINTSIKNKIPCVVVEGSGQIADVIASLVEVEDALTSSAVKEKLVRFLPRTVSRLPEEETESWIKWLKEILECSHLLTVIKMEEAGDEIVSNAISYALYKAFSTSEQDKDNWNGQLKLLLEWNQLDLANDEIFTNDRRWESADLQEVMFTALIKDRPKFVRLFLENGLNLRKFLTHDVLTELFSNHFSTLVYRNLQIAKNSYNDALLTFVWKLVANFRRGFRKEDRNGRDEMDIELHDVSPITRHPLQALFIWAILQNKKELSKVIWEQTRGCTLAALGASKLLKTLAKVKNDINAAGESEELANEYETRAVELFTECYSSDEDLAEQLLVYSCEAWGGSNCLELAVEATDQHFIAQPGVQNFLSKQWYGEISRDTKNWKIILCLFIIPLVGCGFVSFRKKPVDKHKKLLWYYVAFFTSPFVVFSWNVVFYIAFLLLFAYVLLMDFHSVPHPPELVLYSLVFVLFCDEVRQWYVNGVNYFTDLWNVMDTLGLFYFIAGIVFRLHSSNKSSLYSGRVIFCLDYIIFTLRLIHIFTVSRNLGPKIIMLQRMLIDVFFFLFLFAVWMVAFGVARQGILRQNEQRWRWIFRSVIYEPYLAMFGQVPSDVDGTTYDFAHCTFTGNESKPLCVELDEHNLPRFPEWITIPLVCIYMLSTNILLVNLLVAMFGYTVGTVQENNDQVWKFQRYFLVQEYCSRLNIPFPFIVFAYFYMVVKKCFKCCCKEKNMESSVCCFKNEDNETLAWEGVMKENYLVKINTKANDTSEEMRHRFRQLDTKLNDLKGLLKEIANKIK

For the first assay, the target named is Transient receptor potential cation channel subfamily V member 4 (Homo sapiens) (UniProt Q9HBA0). The experiment in a line: Agonist activity at TRPV4. The class given is functional.
Chain of Transient receptor potential cation channel subfamily V member 4 (Homo sapiens) (Q9HBA0 whole entry): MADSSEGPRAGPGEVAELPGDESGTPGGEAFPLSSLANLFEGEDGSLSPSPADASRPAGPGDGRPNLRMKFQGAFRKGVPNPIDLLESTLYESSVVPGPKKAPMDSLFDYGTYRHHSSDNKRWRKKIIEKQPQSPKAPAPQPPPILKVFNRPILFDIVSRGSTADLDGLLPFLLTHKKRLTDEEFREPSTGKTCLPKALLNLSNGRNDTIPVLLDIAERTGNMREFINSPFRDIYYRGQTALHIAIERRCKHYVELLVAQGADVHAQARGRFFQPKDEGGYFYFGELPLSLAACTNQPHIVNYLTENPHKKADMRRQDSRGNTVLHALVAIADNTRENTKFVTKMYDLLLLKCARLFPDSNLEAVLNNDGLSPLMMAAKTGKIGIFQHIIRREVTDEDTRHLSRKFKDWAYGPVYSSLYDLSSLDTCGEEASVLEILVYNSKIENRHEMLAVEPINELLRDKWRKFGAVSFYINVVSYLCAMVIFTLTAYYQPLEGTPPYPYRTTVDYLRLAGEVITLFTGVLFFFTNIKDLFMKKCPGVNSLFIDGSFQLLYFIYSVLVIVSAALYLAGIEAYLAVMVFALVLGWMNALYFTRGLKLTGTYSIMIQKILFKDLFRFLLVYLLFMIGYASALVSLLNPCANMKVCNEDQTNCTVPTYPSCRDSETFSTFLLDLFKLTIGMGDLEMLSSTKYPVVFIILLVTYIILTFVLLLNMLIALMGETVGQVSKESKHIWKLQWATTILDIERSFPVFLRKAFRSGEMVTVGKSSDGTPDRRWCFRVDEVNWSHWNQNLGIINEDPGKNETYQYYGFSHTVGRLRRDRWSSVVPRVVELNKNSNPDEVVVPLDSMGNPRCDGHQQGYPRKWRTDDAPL
In turn, `CCCCC/C=C/C/C=C/C/C=C/CC1OC1CCCC(=O)O` (centres undefined) displayed an Activity of 0.01 µM.

In turn, `CCCCCCCCCC(=O)O[C@H]1[C@H](C)[C@]2(O)[C@H](C=C(CO)C[C@@]3(O)C(=O)C(C)=C[C@H]23)[C@H]2C(C)(C)[C@@]12OC(=O)CCCCCCCCC` showed an Activity of 0.099 µM.

Another assay has as its target Transient receptor potential cation channel subfamily M member 8 (Homo sapiens) (UniProt Q7Z2W7). The experiment in a line: Agonist activity at TRPM8. The class given is functional.
In the case of `O=C1NC(c2cccc([N+](=O)[O-])c2)=CCN1c1ccccc1O`, the Activity was found to be 0.099 µM.

In turn, `CC1CCC(C(C)C)C(O)C1` (centres undefined) came in with an Activity of 10 µM.

Regarding `CC12CCC(CC1)C(C)(C)O2`, the Activity was 100 µM.

For another assay, the target named is Transient receptor potential cation channel subfamily A member 1 (Homo sapiens) (UniProt O75762). The experiment in a line: Agonist activity at TRPA1. The class given is functional.
Chain of Transient receptor potential cation channel subfamily A member 1 (Homo sapiens) (O75762 whole entry): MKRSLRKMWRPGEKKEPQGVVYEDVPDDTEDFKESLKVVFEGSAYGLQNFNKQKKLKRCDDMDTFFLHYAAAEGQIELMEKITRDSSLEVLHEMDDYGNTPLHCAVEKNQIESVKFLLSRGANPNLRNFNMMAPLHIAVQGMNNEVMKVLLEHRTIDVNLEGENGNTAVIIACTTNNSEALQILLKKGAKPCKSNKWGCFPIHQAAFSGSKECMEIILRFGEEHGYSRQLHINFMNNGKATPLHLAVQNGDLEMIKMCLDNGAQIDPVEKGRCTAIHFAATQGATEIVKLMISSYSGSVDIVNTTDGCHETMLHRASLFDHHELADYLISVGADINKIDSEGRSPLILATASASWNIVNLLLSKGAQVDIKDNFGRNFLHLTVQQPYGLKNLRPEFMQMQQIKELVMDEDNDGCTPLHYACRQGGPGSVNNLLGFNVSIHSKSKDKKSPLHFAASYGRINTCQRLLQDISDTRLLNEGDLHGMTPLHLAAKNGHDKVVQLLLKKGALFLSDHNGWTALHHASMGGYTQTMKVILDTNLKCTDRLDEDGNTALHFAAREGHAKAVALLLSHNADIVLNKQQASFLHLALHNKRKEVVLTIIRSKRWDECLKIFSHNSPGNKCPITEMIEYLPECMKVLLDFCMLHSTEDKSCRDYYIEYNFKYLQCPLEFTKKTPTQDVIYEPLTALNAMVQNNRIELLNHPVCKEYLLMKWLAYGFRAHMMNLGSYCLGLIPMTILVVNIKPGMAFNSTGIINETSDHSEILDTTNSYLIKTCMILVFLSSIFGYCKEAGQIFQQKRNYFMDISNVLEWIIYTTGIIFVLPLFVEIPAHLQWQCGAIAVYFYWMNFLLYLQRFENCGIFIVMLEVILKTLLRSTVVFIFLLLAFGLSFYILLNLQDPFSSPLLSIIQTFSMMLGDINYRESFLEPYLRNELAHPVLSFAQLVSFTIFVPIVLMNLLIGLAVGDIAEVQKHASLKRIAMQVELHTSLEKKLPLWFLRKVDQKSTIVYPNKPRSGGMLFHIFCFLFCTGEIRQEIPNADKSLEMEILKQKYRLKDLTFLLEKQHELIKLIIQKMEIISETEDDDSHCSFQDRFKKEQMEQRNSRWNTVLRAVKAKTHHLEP
`O=C1NC(c2cccc([N+](=O)[O-])c2)=CCN1c1ccccc1O` gave an Activity of 0.099 µM.

With `O=C/C=C/c1ccccc1`, the Activity was found to be 10 µM.

As to `CCCCCc1cc(O)c2c(c1)OC(C)(C)[C@@H]1CCC(C)=C[C@@H]21`, the Activity is 10 µM.

`C=CCS[S+]([O-])CC=C` (centres undefined) displayed an Activity of 10 µM.

These data come from ChEMBL document CHEMBL1221170, “Sensing with TRP channels” (Nat Chem Biol, 2005).
